The record followed here is patent US20250099448A1, “HETEROCYCLIC COMPOUNDS” (Hoffmann-La Roche Inc., priority 2022, published 2025).

pIC50: −log10 of the molar value.

For the test, the target named is T1, MAGL protein (Homo sapiens, UniProt Q99685).
T1 sequence (Q99685 1-303): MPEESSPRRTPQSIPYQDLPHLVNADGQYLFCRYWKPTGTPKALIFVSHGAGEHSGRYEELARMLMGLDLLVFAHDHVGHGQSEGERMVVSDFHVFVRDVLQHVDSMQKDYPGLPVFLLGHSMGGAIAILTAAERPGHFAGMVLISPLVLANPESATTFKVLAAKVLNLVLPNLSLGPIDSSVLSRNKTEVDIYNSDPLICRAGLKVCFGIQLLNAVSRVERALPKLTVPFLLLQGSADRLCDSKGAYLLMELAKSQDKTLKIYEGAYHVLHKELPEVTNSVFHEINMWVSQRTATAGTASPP
Kind of test: 2-AG assay: MAGL inhibitory activity by hydrolysis of 2-arachidonoylglycerol to arachidonic acid, followed by mass spectrometry. As to conditions: 8 μM 2-arachidonoylglycerol, 15 min preincubation, 30 min reaction at RT, RapidFire MS readout. Format: biochemical. The method in brief: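 MAGL was preincubated 15 min at RT with compound (12.5 to […], 3-fold steps) in 50 mM TRIS, 1 mM EDTA, 0.01% Tween-20, 2.5% DMSO. The reaction ran 30 min at RT with 8 μM 2-AG. Arachidonic acid was quantified by RapidFire SPE-MS/MS against a d8-arachidonic acid internal standard.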

As for `CS(=N)(=O)c1cc(CC2CC3(C2)CN(C(=O)N2CC4(CC(c5nc(C6CC6)n[nH]5)C4)C2)C3)cc(C(F)(F)F)c1` (stereo not shown) [compound 660], the pIC50 (as a rule, −log10 of the IC50, conventionally taken in molar units) was 9.10.
`NC1(c2nnc(C3CC4(C3)CN(C(=O)N3CC5(CC(Cc6ccc(F)cc6C(F)(F)F)C5)C3)C4)[nH]2)CC1` [Example 636] had a pIC50 of 10.52.
Molecule `N=S(=O)(c1cnn(CC2CC3(C2)CN(C(=O)N2CC4(CC(c5nc(C6CC6)n[nH]5)C4)C2)C3)c1)C(F)(F)F` (stereo not shown) [compound 950] showed a negative-log IC50 (pIC50) of 8.52.
Consider `O=C(N1CC2(CC(Cc3ccc(C(F)(F)F)cn3)C2)C1)N1CC2(CC(c3nc(C4CC(F)(F)C4)n[nH]3)C2)C1` [compound 661], for which the pIC50 is 7.66.
The molecule `N=S(=O)(c1ccc(CC2CC3(C2)CN(C(=O)N2CC4(CC(c5nc(C6(O)CC6)n[nH]5)C4)C2)C3)cc1)C(F)(F)F` (stereo not shown) [compound 558] showed a pIC50 of 9.22.
`CS(=O)(=O)c1ccc(CC2CC3(C2)CN(C(=O)N2CC4(CC(c5nc(C6COC6)n[nH]5)C4)C2)C3)cc1` [compound 817] had a pIC50 of 6.74.
In turn, `O=C(N1CC(c2ccc(NCC3(C(F)(F)F)CC3)nc2)C1)N1CC2(CC(c3nnc(C4CC4)[nH]3)C2)C1` [compound 253] had a pIC50 of 9.85.
Take `O=C(N1CC2(CC(Cc3cncc(C(F)(F)F)c3)C2)C1)N1CC2(CC(c3nnc(C4CC4)[nH]3)C2)C1` [compound 114]: the negative-log IC50 (pIC50) is 9.66.
In turn, `N=S(=O)(c1ccc(C(F)(F)F)cc1)C1CCC2(CC1)CN(C(=O)N1CC3(CC(c4nc(C5CC5)n[nH]4)C3)C1)C2` (stereo not shown) [Example 429] showed a pIC50 of 7.93.
As to `Cn1ncc(CN2CC3(C2)CN(C(=O)N2CC4(CC(c5nc(C6CC6)n[nH]5)C4)C2)C3)c1C(F)(F)F` [compound 688], the pIC50 was 8.05.
As to `O=C(N1CC2(CC(c3nc(C4CC4)n[nH]3)C2)C1)N1CC2(CN(Cc3ccn(CC(F)(F)F)n3)C2)C1` [compound 618], the negative logarithm of the IC50 (pIC50) was 7.02.
For `N#Cc1cnn(CC2CC3(C2)CN(C(=O)N2CC4(CC(c5nc(C6(O)CC6)n[nH]5)C4)C2)C3)c1` [compound 719] the value was 7.16.
`O=C(N1CC2(CC(Cc3nc(C(F)(F)F)ns3)C2)C1)N1CC2(CC(c3nnc(C4CC4)[nH]3)C2)C1` [compound 59] showed a negative logarithm of the IC50 (pIC50) of 9.28.
On to `O=C(N1CC2(CCC(S(=O)(=O)c3ccc(C(F)(F)F)cc3)CC2)C1)N1CC2(CC(c3nc(C4(O)CC4)n[nH]3)C2)C1` [compound 550], for which the pIC50 was 8.01.
In turn, `NC(=O)[C@@H]1CC(F)(F)CCN1c1ccc(C2CN(C(=O)N3CC4(CC(c5nnc(C6CC6)[nH]5)C4)C3)C2)cc1` [Example 395, (2S)-1-[4-[1-[6-(5-cyclopropyl-4H-1,2,4-triazol-3-yl)-2-azaspiro[3.3]heptane-2-carbonyl]azetidin-3-yl]phenyl]-4,4-difluoro-piperidine-2-carboxamide] gave a pIC50 of 8.89.
For the molecule `O=C(N1CC(NCc2cc(C(F)(F)F)ccc2Cl)C1)N1CC2(CC(c3nnc(C4CC4)[nH]3)C2)C1` [compound 188], the pIC50 was 7.69.
For `Cn1cc(CN2CC3(C2)CN(C(=O)N2CC4(CC(c5nc(C6CC6)n[nH]5)C4)C2)C3)c(C(F)(F)F)n1` [compound 472] the value was 7.75; for `Cc1cc(C2CC2)n(-c2ccc(C3CN(C(=O)N4CC5(CC(c6nnc(C7CC7)[nH]6)C5)C4)C3)cc2)n1` [compound 287], 9.89.
The molecule `O=C(N1CC(C23CC(c4ccc(F)cc4)(C2)C3)C1)N1CC2(CC(c3nc(C4(O)CC4)n[nH]3)C2)C1` [compound 674] had a pIC50 of 8.09.
On to `NC(=O)C(c1ccc(F)cc1)C1CCN(C(=O)N2CC3(CC(c4nnc(C5CC5)[nH]4)C3)C2)CC1` (stereo not shown) [compound 362], for which the pIC50 is 6.97.
`O=C(N1CC2(CC(c3nnc(C4CC4)[nH]3)C2)C1)N1CC2(CCN(Cc3cnc(C(F)(F)F)cn3)C2)C1` [compound 184] had a pIC50 of 7.93.
Turning to `O=C(N1CC(C23CC(COc4ccc(C(F)(F)F)cn4)(C2)C3)C1)N1CC2(CC(c3nc(C4CC4)n[nH]3)C2)C1` [compound 941], the pIC50 was 10.40.
